Among the test systems are A549 NSCLC; SN12C renal; MOLT-4 leukemia; RPMI-8226 leukemia; EKVX NSCLC; MDA-MB-435; SW-620 colon; OVCAR-3 ovarian; IGROV1 ovarian; M14 melanoma.
Holding throughout (experiment): growth of human tumour cells (NCI), 48 h

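Grown in 96-well plates, cells were treated for 48 hours with each compound at five concentrations. Insufficient inhibition: endpoint recorded as highest concentration tested. GI50 = concentration required for 50% inhibition of growth. TGI is the concentration that stops growth completely.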 Bounds are passed on as bounds.

`O=C1c2ccccc2-c2nccc3cc(Cl)nc1c23`: the GI50 was 5.15 µM with A549 NSCLC; 2.25 µM in the experiment on SN12C renal; 2.21 µM with MOLT-4 leukemia; 0.705 µM with RPMI-8226 leukemia; 48.9 µM in the experiment with EKVX NSCLC; 1.41 µM with MDA-MB-435. In addition, the results for the GI50 with SW-620 colon, with OVCAR-3 ovarian and in the experiment with IGROV1 ovarian were 1.15 µM, 0.631 µM and 0.586 µM, respectively. The TGI was more than 94.1 µM with A549 NSCLC; more than 100 µM in the experiment with SN12C renal; more than 26.8 µM in the experiment on MOLT-4 leukemia; 3.35 µM with RPMI-8226 leukemia; more than 100 µM with EKVX NSCLC; 2.84 µM with MDA-MB-435. Besides, the TGI in the experiment with SW-620 colon came out at 2.37 µM; with OVCAR-3 ovarian, 1.79 µM; in the experiment on IGROV1 ovarian, 1.91 µM.

In the case of `Cn1c(=O)c(Oc2cccc(F)c2)cc2cnc(NC3CCOCC3)nc21`, the GI50 in the experiment with A549 NSCLC, in the experiment with SN12C renal, in the experiment on RPMI-8226 leukemia, in the experiment on M14 melanoma, with MDA-MB-435 and in the experiment on SW-620 colon was more than 25 µM each time. Further, the GI50 with OVCAR-3 ovarian was more than 25 µM; in the experiment on IGROV1 ovarian, 24.8 µM. For the same molecule, the TGI in the experiment on A549 NSCLC, with SN12C renal, in the experiment on RPMI-8226 leukemia, with M14 melanoma, with MDA-MB-435 and with SW-620 colon was more than 25 µM each time. In addition, the TGI in the experiment with OVCAR-3 ovarian and in the experiment on IGROV1 ovarian was more than 25 µM throughout.

As for `CCN(CC)c1ccc(N=C2C=C(C(=O)Nc3ccc(S(C)(=O)=O)cc3)C(=O)c3ccccc32)c(C)c1`, the GI50 in the experiment on A549 NSCLC is 49.6 µM; in the experiment with SN12C renal, more than 100 µM; in the experiment on MOLT-4 leukemia it was more than 100 µM; in the experiment with RPMI-8226 leukemia it was 4.96 µM; in the experiment with M14 melanoma, 88.5 µM; with EKVX NSCLC it was 5.52 µM. For the same molecule, the GI50 is 7.49 µM in the experiment with MDA-MB-435, more than 100 µM in the experiment on SW-620 colon and 3.78 µM in the experiment on OVCAR-3 ovarian. The TGI in the experiment on A549 NSCLC, in the experiment with SN12C renal, in the experiment with MOLT-4 leukemia, in the experiment on RPMI-8226 leukemia, with M14 melanoma and in the experiment with EKVX NSCLC was more than 100 µM each time. Besides, the TGI was 54.8 µM in the experiment with MDA-MB-435, more than 100 µM with SW-620 colon and more than 100 µM in the experiment on OVCAR-3 ovarian.

On to `COc1ccc(Nc2ncccc2/C=C/C(=O)c2cc(OC)c(OC)c(OC)c2)cc1`, for which the GI50 with SN12C renal is 1.56 µM; in the experiment with MOLT-4 leukemia, 2.09 µM; with M14 melanoma it was 1.65 µM; in the experiment on EKVX NSCLC it was 1.8 µM; in the experiment on MDA-MB-435, 1.46 µM; in the experiment on SW-620 colon it was 1.2 µM. Besides, the figures for the GI50 with OVCAR-3 ovarian and in the experiment with IGROV1 ovarian were 1.64 µM and 2 µM, respectively. Moreover, the TGI in the experiment on SN12C renal is 3.44 µM; in the experiment on MOLT-4 leukemia, 5.45 µM; with M14 melanoma, 3.16 µM; in the experiment with EKVX NSCLC it was 4.01 µM; in the experiment on MDA-MB-435 it was 3.36 µM; in the experiment with SW-620 colon it was 2.43 µM. Moreover, the TGI in the experiment with OVCAR-3 ovarian turned out to be 2.99 µM; in the experiment with IGROV1 ovarian, 5.31 µM.

Consider `Cc1ccc2c[c]1[Hg][CH2]COS2(=O)=O`, for which the GI50 with A549 NSCLC was more than 100 µM; with SN12C renal, 17.2 µM; with MOLT-4 leukemia, 18.1 µM; with M14 melanoma, 17.4 µM; in the experiment with EKVX NSCLC it was 21.5 µM; with MDA-MB-435, 24.7 µM. Further, the GI50 with SW-620 colon is 17.8 µM; in the experiment on IGROV1 ovarian, 5.3 µM. For the same molecule, the TGI was more than 100 µM in the experiment on A549 NSCLC; 30.9 µM in the experiment with SN12C renal; 34.1 µM with MOLT-4 leukemia; 31.2 µM in the experiment on M14 melanoma; 38.5 µM in the experiment on EKVX NSCLC; 39.4 µM in the experiment with MDA-MB-435. For the same molecule, the TGI with SW-620 colon turned out to be 31.6 µM; in the experiment on IGROV1 ovarian it was 20.7 µM.

Consider `Cc1ccccc1S(=O)(=O)N1[C@H](c2ccc(Cl)cc2)C(C(=O)N[C@@H](Cc2ccccc2)C(N)=O)=C[C@@H]1C(C)(C)C`, for which the GI50 in the experiment on A549 NSCLC is 3.43 µM; in the experiment on SN12C renal, 6.08 µM; in the experiment with MOLT-4 leukemia it was 4.87 µM; in the experiment with RPMI-8226 leukemia, 3.07 µM; in the experiment on M14 melanoma, 6.44 µM; in the experiment on MDA-MB-435 it was 6.83 µM. Moreover, the GI50 in the experiment with SW-620 colon is 7.76 µM; with OVCAR-3 ovarian it was 6.12 µM; in the experiment with IGROV1 ovarian, 9.57 µM. Moreover, the TGI came out at 13.1 µM with A549 NSCLC; 13.3 µM with SN12C renal; 31.3 µM with MOLT-4 leukemia; 26.7 µM in the experiment on RPMI-8226 leukemia; 17 µM in the experiment on M14 melanoma; 13.7 µM with MDA-MB-435. Also, the TGI with SW-620 colon was 19.8 µM; in the experiment with OVCAR-3 ovarian it was 14 µM; with IGROV1 ovarian it was 23.1 µM.

Take `Oc1ccc2occ3c2c1CCC3`: the TGI in the experiment with A549 NSCLC, in the experiment with SN12C renal, with MOLT-4 leukemia, with RPMI-8226 leukemia, with M14 melanoma and with EKVX NSCLC was more than 100 µM throughout. Besides, the TGI with SW-620 colon, in the experiment with OVCAR-3 ovarian and with IGROV1 ovarian was more than 100 µM throughout.

Turning to `NC1C2C(CC(=O)O)OCC=C3CN4CCC1(C(=O)C(=O)O)C4CC32` (configuration not stated), the TGI in the experiment with A549 NSCLC, in the experiment with SN12C renal, with MOLT-4 leukemia, with M14 melanoma, in the experiment on EKVX NSCLC and in the experiment with MDA-MB-435 was more than 100 µM each time. The TGI in the experiment on SW-620 colon, in the experiment on OVCAR-3 ovarian and in the experiment with IGROV1 ovarian was more than 100 µM throughout.

For the molecule `CN(C)c1ccc(/C=C/C(=O)C(C)(C)C)cc1Br`, the TGI with A549 NSCLC was more than 100 µM; in the experiment with SN12C renal, 76 µM; in the experiment on MOLT-4 leukemia it was 71.7 µM; in the experiment on RPMI-8226 leukemia, 58.7 µM; in the experiment on M14 melanoma, 43.2 µM; in the experiment on EKVX NSCLC, more than 100 µM. For the same molecule, the TGI is 60.2 µM in the experiment on SW-620 colon, more than 100 µM in the experiment with OVCAR-3 ovarian and more than 100 µM with IGROV1 ovarian.

In the case of `CCCCCCCCCCCCCCCC(=O)OCC1OC(n2cnc3c(=S)nc(N)[nH]c32)C(OC(=O)CCCCCCCCCCCCCCC)C1OC(=O)CCCCCCCCCCCCCCC` (configuration not stated), the GI50 with A549 NSCLC is more than 37.2 µM; with SN12C renal it was 18.3 µM; with MOLT-4 leukemia, 2.95 µM; in the experiment with M14 melanoma it was 1.5 µM; in the experiment with EKVX NSCLC it was 6.15 µM; in the experiment on MDA-MB-435, 3.68 µM. In addition, the GI50 in the experiment on SW-620 colon is 11.1 µM; with OVCAR-3 ovarian it was 6.16 µM; with IGROV1 ovarian, 22.7 µM. Moreover, the TGI was more than 50 µM with A549 NSCLC; more than 50 µM with SN12C renal; more than 50 µM in the experiment with MOLT-4 leukemia; more than 17.9 µM in the experiment with M14 melanoma; more than 50 µM with EKVX NSCLC; more than 50 µM in the experiment on MDA-MB-435. For the same molecule, the TGI with SW-620 colon was more than 50 µM; in the experiment on OVCAR-3 ovarian it was more than 47.3 µM; in the experiment with IGROV1 ovarian, more than 50 µM.

The values are drawn from PubChem BioAssay (NCI).
